# Experiments:
# Format in all cases: cell-based, Human
# [1] = tested on: CRE-GFP 293 cells; assay: CRE-GFP 293 reporter cell assay (flow cytometry); conditions: 5–10 μM, 5 h, in the presence or absence of Ca2+ ionophore (2 μM)
# [2] = tested on: Aβ-GFP SH-SY5Y cells; assay: High content analysis of Aβ-GFP fluorescence
# Procedure: (§1) Human neuroblastoma SH-SY5Y-derived Aβ-GFP [23] and ∆K280 tauRD-DsRed cells were kept in DMEM/nutrient mixture F12 (DMEM/F12) containing 10% FBS, 5 μg/ml blasticidin, and 100 μg/ml hygromycin (InvivoGen, San Diego, CA, USA). Doxycycline (Sigma-Aldrich) was applied to induce the expression of Aβ-GFP (5 μg/ml doxycycline) or ∆K280 tauRD-DsRed (2 μg/ml doxycycline).
# On day 1, Aβ-GFP or ∆K280 tauRD-DsRed SH-SY5Y cells were seeded into 96-well plates (2.5 × 10^4/well) and treated with retinoic acid (10 μM; Sigma-Aldrich) to prompt neuronal differentiation. […] Image Acquisition and Analysis Software (MetaXpress) (Molecular Devices, Sunnyvale, CA, USA) was used to analyse the images. CellROX Orange (5 μM; Molecular Probes, Eugene, OR, USA) (for Aβ-GFP cells) or dichloro-dihydro-fluorescein diacetate (DCFH-DA, 10 μM; Invitrogen) (for ∆K280 tauRD-DsRed cells) was added to the cells and incubated at 37°C for 30 min.
# [3] = tested on: ∆K280 tauRD-DsRed SH-SY5Y cells; assay: High content analysis of ΔK280 tauRD-DsRed fluorescence; conditions: tested 2.5–10 μM
# Procedure: as §1, with “Human 293-derived Flp-In-293 cells (Invitrogen, Madison, WI, USA) were cultivated in Dulbecco's modified Eagle's medium (DMEM) containing 10% foetal bovine serum (FBS) (Thermo Fisher Scientific). Human” for “Human”
# On day 1, Aβ-GFP or ∆K280 tauRD-DsRed SH-SY5Y cells were seeded into 96-well plates (2.5 × 10^4/well) and treated with retinoic acid (10 μM; Sigma-Aldrich) to prompt neuronal differentiation. […] On day 8, cells were stained with Hoechst 33342 (0.1 μg/ml; Sigma-Aldrich) for 30 min, and cell images were automatically captured at excitation/emission wavelengths of 482/[…] (GFP fluorescence) or 543/593 nm (DsRed fluorescence) using a high content analysis (HCA) system (Micro Confocal High-Content Imaging System). Image Acquisition and Analysis Software (MetaXpress) (Molecular Devices, Sunnyvale, CA, USA) was used to analyse the images. CellROX Orange (5 μM; Molecular Probes, Eugene, OR, USA) (for Aβ-GFP cells) or dichloro-dihydro-fluorescein diacetate (DCFH-DA, 10 μM; Invitrogen) (for ∆K280 tauRD-DsRed cells) was added to the cells and incubated at 37°C for 30 min. The HCA system was used to measure intracellular ROS at 531/593 nm (CellROX Orange fluorescence) or 482/536 nm (DCFH-DA fluorescence) of excitation/emission wavelengths.
smiles,measurement,setting,value
"CN(C)c1ccc(/C=C/C(=O)c2c(O)c3ccccc3oc2=O)cc1 [LM-021, (E)-3-(3-(4-(dimethylamino)phenyl)acryloyl)-4-hydroxy-2H-chromen-2-one]",CRE-motif-driven GFP expression,[1],significantly activated
same,Toxicity in SH-SY5Y cells,[2]; Aβ-GFP and ΔK280 tauRD-DsRed SH-SY5Y cells (Figures 3 and 4),low toxicity
same,EC50,"[2]; Homo sapiens, Aβ-GFP SH-SY5Y cells, tested 1.2–5 μM, read-out: EC50 in Aβ aggregation inhibition (GFP fluorescence)",5.1 µM
same,Concentration significantly augmenting green fluorescence intensity (Aβ-GFP),"[2]; tested 1.2–5 μM, day 8",1.2 to 5 µM
same,EC50,"[3]; Homo sapiens, ∆K280 tauRD-DsRed SH-SY5Y cells, read-out: Extrapolated EC50 in inhibiting ∆K280 tauRD aggregation (DsRed fluorescence)",10 µM
same,Concentration significantly elevating DsRed fluorescence intensity,[3]; day 8,5 to 10 µM
